Source: patent publication US20100216751A1 (priority 2007, published 2010)
Where “and” joins values, the source holds several entries; their conditions need not be identical. Identical values can stand only once.

Test: Pharmacokinetic evaluation of liquid bevirimat dosage forms, oral gavage, male Cynomolgus monkeys
Experimental: Six male Cynomolgus monkeys having an initial body weight of about 3.5 to about 4.5 kg are allowed 7 days to acclimate to their individual housing units. Monkeys are supplied with water and a commercial diet ad libitum prior to the study initiation. Food is withheld from the monkeys for a minimum of twelve hours before the study and during the study until four hours postdose when food is returned. Water is supplied ad libitum.
Test formulations are administered to the monkeys at time 0 on appropriate days. Test formulations will be dosed orally via oral gavage or intravenously.
Samples are drawn at the frequencies indicated below. Each blood sample (0.5 mL) is collected from the monkey's saphenous vein via a butterfly catheter and placed into a chilled polypropylene tube containing sodium heparin as the anticoagulant. Blood samples are centrifuged at a temperature of 4° C. at a speed of 3,000 rpm for 15 minutes. All samples are maintained chilled throughout processing. Plasma is collected after centrifugation, pipetted into a 2-mL polypropylene microtube, and frozen on dry-ice pending analytical evaluation.

[1] = oral, 50 mg/monkey, PG/glycerin/Vitamin ETPGS/Tween80/Plasdone C15 formulation, individual monkey
[2] = oral, 50 mg/monkey, PG/glycerin/Vitamin ETPGS/ethanol formulation, individual monkey
[3] = oral, 200 mg/monkey, PG/glycerin/Vitamin ETPGS/ethanol formulation, individual monkey

C=C(C)[C@@H]1CC[C@]2(C(=O)O)CC[C@]3(C)[C@H](CC[C@@H]4[C@@]5(C)CC[C@H](OC(=O)CC(C)(C)C(=O)O)C(C)(C)[C@@H]5CC[C@]43C)[C@@H]12 [Bevirimat, 3-O-(3′,3′-dimethylsuccinyl)betulinic acid]
concentration at 6 hr (male, cynomolgus monkey, in vivo, po, 200 mg/monkey, Plasma Concentration, PG/glycerin/Vitamin ETPGS/ethanol formulation, 6.0 hr, individual monkey): 79400 ng/mL | concentration at 8 hr (male, cynomolgus monkey, in vivo, po, 200 mg/monkey, Plasma Concentration, PG/glycerin/Vitamin ETPGS/ethanol formulation, 8.0 hr, AVG): 51300 ng/mL | concentration at 8 hr (male, cynomolgus monkey, in vivo, po, 200 mg/monkey, Plasma Concentration, PG/glycerin/Vitamin ETPGS/ethanol formulation, 8.0 hr, individual monkey): 53400 ng/mL | concentration at 12 hr (male, cynomolgus monkey, in vivo, po, 200 mg/monkey, Plasma Concentration, PG/glycerin/Vitamin ETPGS/ethanol formulation, 12 hr, AVG): 19600 ng/mL | concentration at 12 hr (male, cynomolgus monkey, in vivo, po, 200 mg/monkey, Plasma Concentration, PG/glycerin/Vitamin ETPGS/ethanol formulation, 12 hr, individual monkey): 15600 ng/mL | concentration at 24 hr (male, cynomolgus monkey, in vivo, po, 200 mg/monkey, Plasma Concentration, PG/glycerin/Vitamin ETPGS/ethanol formulation, 24 hr, AVG): 4840 ng/mL | concentration at 48 hr (male, cynomolgus monkey, in vivo, po, 200 mg/monkey, Plasma Concentration, PG/glycerin/Vitamin ETPGS/ethanol formulation, 48 hr, AVG): 2620 ng/mL | concentration at 72 hr (male, cynomolgus monkey, in vivo, po, 200 mg/monkey, Plasma Concentration, PG/glycerin/Vitamin ETPGS/ethanol formulation, 72 hr, AVG): 296 ng/mL | Plasma Concentration (oral, 50 mg/monkey, PG/glycerin/Vitamin ETPGS/Tween80/Plasdone C15 formulation, 0.25 hr, individual monkey): 56.3 ng/mL and 67.8 ng/mL | Plasma Concentration (oral, 50 mg/monkey, PG/glycerin/Vitamin ETPGS/Tween80/Plasdone C15 formulation, 0.50 hr, individual monkey): 409 ng/mL and 2660 ng/mL and 7590 ng/mL | Plasma Concentration (oral, 50 mg/monkey, PG/glycerin/Vitamin ETPGS/Tween80/Plasdone C15 formulation, 1.0 hr, individual monkey): 1010 ng/mL and 17400 ng/mL and 56100 ng/mL | Plasma Concentration (oral, 50 mg/monkey, PG/glycerin/Vitamin ETPGS/Tween80/Plasdone C15 formulation, 2.0 hr, individual monkey): 63500 ng/mL and 68500 ng/mL | Plasma Concentration (oral, 50 mg/monkey, PG/glycerin/Vitamin ETPGS/Tween80/Plasdone C15 formulation, 6.0 hr, individual monkey): 36300 ng/mL and 29000 ng/mL | Plasma Concentration (oral, 50 mg/monkey, PG/glycerin/Vitamin ETPGS/Tween80/Plasdone C15 formulation, 8.0 hr, individual monkey): 21800 ng/mL and 19000 ng/mL | Plasma Concentration (oral, 50 mg/monkey, PG/glycerin/Vitamin ETPGS/Tween80/Plasdone C15 formulation, 12 hr, individual monkey): 9150 ng/mL and 6750 ng/mL | Plasma Concentration (oral, 50 mg/monkey, PG/glycerin/Vitamin ETPGS/Tween80/Plasdone C15 formulation, 24 hr, individual monkey): 1490 ng/mL and 988 ng/mL | Plasma Concentration (oral, 50 mg/monkey, PG/glycerin/Vitamin ETPGS/Tween80/Plasdone C15 formulation, 48 hr, individual monkey): 635 ng/mL and 174 ng/mL and 200 ng/mL | Plasma Concentration (oral, 50 mg/monkey, PG/glycerin/Vitamin ETPGS/Tween80/Plasdone C15 formulation, 72 hr, individual monkey): BLOQ | Cmax [1]: 63500 ng/mL and 68500 ng/mL | t1/2 [1]: 5.3 h and 5.4 h | Plasma Concentration (oral, 50 mg/monkey, PG/glycerin/Vitamin ETPGS/ethanol formulation, 0.25 hr, individual monkey): BLOQ | Plasma Concentration (oral, 50 mg/monkey, PG/glycerin/Vitamin ETPGS/ethanol formulation, 0.50 hr, individual monkey): 268 ng/mL and 420 ng/mL and 49.7 ng/mL | Plasma Concentration (oral, 50 mg/monkey, PG/glycerin/Vitamin ETPGS/ethanol formulation, 1.0 hr, individual monkey): 40200 ng/mL and 23100 ng/mL | Plasma Concentration (oral, 50 mg/monkey, PG/glycerin/Vitamin ETPGS/ethanol formulation, 2.0 hr, individual monkey): 70800 ng/mL | Plasma Concentration (oral, 50 mg/monkey, PG/glycerin/Vitamin ETPGS/ethanol formulation, 4.0 hr, individual monkey): 33200 ng/mL and 59800 ng/mL | Plasma Concentration (oral, 50 mg/monkey, PG/glycerin/Vitamin ETPGS/ethanol formulation, 6.0 hr, individual monkey): 18100 ng/mL and 14000 ng/mL and 37000 ng/mL | Plasma Concentration (oral, 50 mg/monkey, PG/glycerin/Vitamin ETPGS/ethanol formulation, 8.0 hr, individual monkey): 10600 ng/mL and 10000 ng/mL and 23600 ng/mL | Plasma Concentration (oral, 50 mg/monkey, PG/glycerin/Vitamin ETPGS/ethanol formulation, 12 hr, individual monkey): 3390 ng/mL and 3450 ng/mL and 9100 ng/mL | Plasma Concentration (oral, 50 mg/monkey, PG/glycerin/Vitamin ETPGS/ethanol formulation, 24 hr, individual monkey): 922 ng/mL and 1100 ng/mL and 2000 ng/mL | Plasma Concentration (oral, 50 mg/monkey, PG/glycerin/Vitamin ETPGS/ethanol formulation, 48 hr, individual monkey): 62.6 ng/mL and 97.8 ng/mL and 286 ng/mL | Plasma Concentration (oral, 50 mg/monkey, PG/glycerin/Vitamin ETPGS/ethanol formulation, 72 hr, individual monkey): BLOQ | Cmax [2]: 50500 ng/mL and 70800 ng/mL | Dnzed AUCall [2]: 33692 ng·h/mL/mg/kg | t1/2 [2]: 7.0 h and 7.4 h | Plasma Concentration (oral, 200 mg/monkey, PG/glycerin/Vitamin ETPGS/ethanol formulation, 0.25 hr, individual monkey): 1040 ng/mL and 89.0 ng/mL | Plasma Concentration (oral, 200 mg/monkey, PG/glycerin/Vitamin ETPGS/ethanol formulation, 0.50 hr, individual monkey): 10300 ng/mL and 1740 ng/mL | Plasma Concentration (oral, 200 mg/monkey, PG/glycerin/Vitamin ETPGS/ethanol formulation, 1.0 hr, individual monkey): 88400 ng/mL and 41200 ng/mL | Plasma Concentration (oral, 200 mg/monkey, PG/glycerin/Vitamin ETPGS/ethanol formulation, 2.0 hr, individual monkey): 232000 ng/mL | Plasma Concentration (oral, 200 mg/monkey, PG/glycerin/Vitamin ETPGS/ethanol formulation, 4.0 hr, individual monkey): 138000 ng/mL | Plasma Concentration (oral, 200 mg/monkey, PG/glycerin/Vitamin ETPGS/ethanol formulation, 6.0 hr, individual monkey): 76300 ng/mL | Plasma Concentration (oral, 200 mg/monkey, PG/glycerin/Vitamin ETPGS/ethanol formulation, 12 hr, individual monkey): 23700 ng/mL | Plasma Concentration (oral, 200 mg/monkey, PG/glycerin/Vitamin ETPGS/ethanol formulation, 24 hr, individual monkey): 2180 ng/mL and 7500 ng/mL | Plasma Concentration (oral, 200 mg/monkey, PG/glycerin/Vitamin ETPGS/ethanol formulation, 48 hr, individual monkey): 547 ng/mL and 4700 ng/mL | Plasma Concentration (oral, 200 mg/monkey, PG/glycerin/Vitamin ETPGS/ethanol formulation, 72 hr, individual monkey): 117 ng/mL and 474 ng/mL | AUCall [3]: 1398.863 µg·h/mL | Cmax [3]: 232000 ng/mL | Dnzed AUCall [3]: 27977 ng·h/mL/mg/kg | t1/2 [3]: 10.1 h
